Experiments:
Experiment in all cases: relative viability (nuclei count vs DMSO), 5 days (fraction); higher = more cells survive
[1] = compound: CC(O)(CS(=O)(=O)c1ccc(F)cc1)C(=O)Nc1ccc(C#N)c(C(F)(F)F)c1 [Bicalutamide] + Nc1nc2[nH]cc(CCc3ccc(C(=O)N[C@@H](CCC(=O)O)C(=O)O)cc3)c2c(=O)[nH]1 [Pemetrexed] (partner 0.2 µM)
In short: (§1)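 Values are medians from duplicate plates. Each reflects relative viability, defined as the nuclei count of treated wells over that of vehicle wells. Lung cancer cell lines in 1536-well plates were pin-tool dosed one day after seeding with one drug alone or with a fixed anchor-drug dose plus five library-drug doses (not always all listed) in √10 steps, then fixed, stained and imaged at 4× after 5 days.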

[2] = compound: C(C(=O)C(=O)O)Br [Bromopyruvate] + Nc1nc2[nH]cc(CCc3ccc(C(=O)N[C@@H](CCC(=O)O)C(=O)O)cc3)c2c(=O)[nH]1 [Pemetrexed] (partner 0.2 µM)
In short: as §1

[3] = compound: CC(O)(CS(=O)(=O)c1ccc(F)cc1)C(=O)Nc1ccc(C#N)c(C(F)(F)F)c1 [Bicalutamide] + CC(=O)Nc1cccc(-n2c(=O)n(C3CC3)c(=O)c3c(Nc4ccc(I)cc4F)n(C)c(=O)c(C)c32)c1 [Trametinib] (partner 0.02 µM)
In short: as §1

Bicalutamide + Foretinib = compound: CC(O)(CS(=O)(=O)c1ccc(F)cc1)C(=O)Nc1ccc(C#N)c(C(F)(F)F)c1 [Bicalutamide] + COc1cc2c(Oc3ccc(NC(=O)C4(C(=O)Nc5ccc(F)cc5)CC4)cc3F)ccnc2cc1OCCCN1CCOCC1 [Foretinib] (partner 0.25 µM)
In short: as §1

Cell Line | relative viability ([1]; first compound 0.08 µM) | relative viability ([1]; first compound 0.253 µM) | relative viability ([1]; first compound 0.8 µM) | relative viability ([1]; first compound 2.53 µM) | relative viability ([2]; first compound 1 µM) | relative viability ([2]; first compound 3.162 µM) | relative viability ([2]; first compound 10 µM) | relative viability ([2]; first compound 31.62 µM) | relative viability ([2]; first compound 100 µM) | relative viability ([3]; first compound 0.08 µM) | relative viability ([3]; first compound 0.253 µM) | relative viability ([3]; first compound 0.8 µM) | relative viability ([3]; first compound 2.53 µM) | relative viability (Bicalutamide + Foretinib; first compound 0.08 µM) | relative viability (Bicalutamide + Foretinib; first compound 0.253 µM) | relative viability (Bicalutamide + Foretinib; first compound 0.8 µM) | relative viability (Bicalutamide + Foretinib; first compound 2.53 µM)
NCI-H522 | 0.923 | 0.854 | 1.22 | 0.979 | 0.902 | 1.25 | 1.24 | 1.07 | 1.11 | 0.661 | 0.723 | 0.813 | 0.8 | – | – | – | –
HCC-15 | 0.23 | 0.231 | 0.221 | 0.223 | 0.241 | 0.231 | 0.227 | 0.229 | 0.234 | 0.384 | 0.338 | 0.412 | 0.371 | 1.04 | 0.952 | 1.12 | 1.02
A-427 | 0.986 | 0.968 | 1.11 | 0.913 | 1.05 | 0.975 | 1.05 | 0.863 | 1.07 | 0.782 | 0.731 | 0.845 | 0.688 | 1.08 | 1.03 | 1.09 | 1.05
NCI-H23 | 0.52 | 0.528 | 0.854 | 0.578 | 0.71 | 0.76 | 0.808 | 0.619 | 0.812 | 0.418 | 0.317 | 0.434 | 0.399 | 0.905 | 0.876 | 1.01 | 0.965
NCI-H1734 | 0.428 | 0.405 | 0.455 | 0.393 | 0.391 | 0.398 | 0.395 | 0.466 | 0.408 | 0.709 | 0.531 | 0.681 | 0.663 | 0.925 | 0.731 | 1 | 0.809
NCI-H1993 | 0.66 | 0.669 | 0.557 | 0.597 | 0.629 | 0.649 | 0.633 | 0.605 | 0.582 | 0.492 | 0.519 | 0.536 | 0.56 | 0.738 | 0.7 | 0.866 | 0.971
PC-3 [JPC-3] | 1.08 | 1.11 | 1.41 | 1.12 | 1.3 | – | 0.783 | – | 1.11 | 0.756 | 0.737 | 0.697 | 0.719 | 1.01 | 1.02 | 1.07 | 1.11
NCI-H1915 | 0.509 | 0.516 | 0.481 | 0.48 | 0.496 | 0.41 | 0.497 | 0.511 | 0.481 | 0.338 | 0.288 | 0.286 | 0.229 | 0.753 | 1.06 | 1.11 | 1.13
NCI-H1666 | 0.886 | 0.865 | 0.894 | 0.879 | 0.834 | 0.896 | 1.02 | 0.859 | 0.855 | 0.926 | 0.838 | 0.866 | 0.959 | 0.927 | 0.975 | 0.913 | 0.977
HCC-366 | 0.16 | 0.189 | 0.191 | 0.163 | 0.17 | 0.174 | 0.146 | 0.203 | 0.2 | 0.388 | 0.231 | 0.454 | 0.284 | 0.937 | 0.842 | 0.919 | 0.995
SK-MES-1 | 1.04 | 0.867 | 0.981 | 0.832 | 0.999 | 0.974 | 0.941 | 0.94 | 1.01 | 0.534 | 0.508 | 0.456 | 0.499 | 0.832 | 0.829 | 0.979 | 1.03
NCI-H727 | – | – | – | – | – | – | – | – | – | 0.38 | 0.381 | 0.414 | 0.399 | 1 | 0.689 | 1.23 | 0.914
RERF-LC-KJ | 0.471 | 0.457 | 0.517 | 0.492 | 0.49 | 0.507 | 0.457 | 0.49 | 0.468 | 0.968 | 0.909 | 1.07 | 0.81 | 0.814 | 0.927 | 1.04 | 0.889
NCI-H1623 | – | – | – | – | – | – | – | – | – | – | – | – | – | 0.883 | 0.884 | 0.918 | 0.869
Calu-6 | – | – | – | – | – | – | – | – | – | – | – | – | – | 0.931 | 0.916 | 0.853 | 0.843
ABC-1 | – | – | – | – | – | – | – | – | – | – | – | – | – | 0.987 | 1.05 | 1.18 | 1.24
NCI-H1299 | – | – | – | – | – | – | – | – | – | – | – | – | – | 1.04 | 1.08 | 1.09 | 1.08
EBC-1 | – | – | – | – | – | – | – | – | – | – | – | – | – | 0.0878 | 0.115 | 0.0994 | 0.121
NCI-H1792 | 0.825 | 0.658 | 1.16 | 0.831 | 0.904 | 0.997 | 0.699 | 0.894 | 0.983 | 0.439 | 0.362 | 0.542 | 0.434 | – | – | – | –
HCC-44 | 0.675 | 0.707 | 0.637 | 0.688 | 0.621 | 0.591 | 0.555 | 0.616 | 0.638 | 1.16 | 1.09 | 1.07 | 1.1 | – | – | – | –
A549 | – | – | – | – | – | – | – | – | – | – | – | – | – | 0.907 | 1.02 | 1.01 | 0.927
NCI-H1563 | 0.871 | 0.69 | 0.919 | 0.697 | 0.815 | 0.717 | 0.823 | 0.674 | 0.757 | – | – | – | – | 0.888 | 0.872 | 0.89 | 0.897
IA-LM | – | – | – | – | – | – | – | – | – | – | – | – | – | 1.22 | 1.1 | 1.17 | 1.18
NCI-H1703 | – | – | – | – | – | – | – | – | – | – | – | – | – | 0.342 | 0.36 | 0.41 | 0.293
NCI-H1648 | – | – | 0.745 | 0.774 | 0.661 | 0.813 | 0.689 | 0.651 | 0.728 | – | – | 0.395 | 0.546 | – | – | – | –

Reference: the supplement of paper PMC10307832
